We go through 17 molecules from PubChem BioAssay AID248 (DTP/NCI, 2004).

“And” between values parts separate entries of the source, which are not always exact repeats. Equal values may be shown once. Inconclusive results and toxic doses are left out.

This test relates to L1210 leukemia ip in BDF1 mice, survival T/C. The test can be described thus: NCI In Vivo Anticancer Drug Screen. Data for tumor model L1210 Leukemia (intraperitoneal) in B6D2F1 (BDF1) mice. To be noted: endpoint: mean survival time, higher = longer survival. Summed up:
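Ratio derived from survival: compound-dosed mice over vehicle-dosed mice, all bearing a transplantable tumor.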

Setting [1] is: dose: 100.0 mg/kg/injection, schedule: Q01DX001 (ip), vehicle: carboxymethylcellulose (CMC).
Where [2] appears, read: dose: 200.0 mg/kg/injection, schedule: Q01DX001 (ip), vehicle: carboxymethylcellulose (CMC).
Where [3] appears, read: dose: 400.0 mg/kg/injection, schedule: Q01DX001 (ip), vehicle: carboxymethylcellulose (CMC).
[4] abbreviates: dose: 100.0 mg/kg/injection, schedule: Q01DX009 (ip), vehicle: Klucel (hydroxypropylcellulose) (HPC).
Where [5] appears, read: dose: 200.0 mg/kg/injection, schedule: Q01DX009 (ip), vehicle: Klucel (hydroxypropylcellulose) (HPC).
Where [6] appears, read: dose: 100.0 mg/kg/injection, schedule: Q01DX001 (ip), vehicle: Klucel (hydroxypropylcellulose) (HPC).
The mark [7] stands for this setting: dose: 200.0 mg/kg/injection, schedule: Q01DX001 (ip), vehicle: Klucel (hydroxypropylcellulose) (HPC).
Setting [8] is: dose: 400.0 mg/kg/injection, schedule: Q01DX001 (ip), vehicle: Klucel (hydroxypropylcellulose) (HPC).
[9] abbreviates: dose: 100.0 mg/kg/injection, schedule: Q04DX003 (ip), vehicle: Klucel (hydroxypropylcellulose) (HPC).
The mark [10] stands for this setting: dose: 200.0 mg/kg/injection, schedule: Q04DX003 (ip), vehicle: Klucel (hydroxypropylcellulose) (HPC).
Setting [11] is: dose: 400.0 mg/kg/injection, schedule: Q04DX003 (ip), vehicle: Klucel (hydroxypropylcellulose) (HPC).
The mark [12] stands for this setting: dose: 100.0 mg/kg/injection, schedule: Q01DX001 (ip), vehicle: saline.
Where [13] appears, read: dose: 200.0 mg/kg/injection, schedule: Q01DX001 (ip), vehicle: saline.
The mark [14] stands for this setting: dose: 400.0 mg/kg/injection, schedule: Q01DX001 (ip), vehicle: saline.

Regarding `O=[N+]([O-])/C=C\c1cccc(OCc2ccccc2)c1`, the T/C was 101 % of control (dose: 50.0 mg/kg/injection, schedule: Q01DX001 (ip), vehicle: carboxymethylcellulose (CMC)); 103 % of control under setting [1]; 92 % of control under setting [2]; 97 % of control under setting [3].
As to `CC(=O)Nc1cccc(OCc2ccc([N+](=O)[O-])cc2)c1`, the T/C by setting is: (dose: 50.0 mg/kg/injection, schedule: Q01DX009 (ip), vehicle: Klucel (hydroxypropylcellulose) (HPC)) 111 % of control; under setting [4], 97 % of control; under setting [5], 97 % of control.
As for `O=C1c2ccccc2CC(Br)c2ccccc21` (stereo not drawn), the T/C by setting is: under setting [6], 95 % of control; under setting [7], 100 % of control; under setting [8], 100 % of control.
Regarding `O=C(c1cccnc1)n1cc2c(n1)C1=C(CCCC1)CC2`, the T/C runs as follows: under setting [9], 90 % of control; under setting [10], 89 % of control; under setting [11], 86 % of control.
Consider `CC(=O)NC(C(O)CC(=O)C(=O)O)C(O)C(O)C(O)CO` (stereo not drawn) (tested in a mixture with another compound), for which the T/C under setting [12] is 102 % of control, the T/C under setting [13] is 100 % of control and the T/C under setting [14] is 102 % of control.
As to `O=c1[nH]c(=O)c(C2OC(CO)C(O)C2O)co1` (stereo not drawn), the T/C was 123 % of control (dose: 6.25 mg/kg/injection, schedule: Q04DX003 (ip), vehicle: saline with Tween-80) and 106 % of control (dose: 12.5 mg/kg/injection, schedule: Q04DX003 (ip), vehicle: saline with Tween-80).
On to `O=C(N/N=C\c1ccc(Cl)cc1Cl)c1ccco1`, for which the T/C is, setting by setting: (dose: 100.0 mg/kg/injection, schedule: Q01DX001 (ip), vehicle: other) 90 % of control; (dose: 200.0 mg/kg/injection, schedule: Q01DX001 (ip), vehicle: other) 96 % of control; (dose: 400.0 mg/kg/injection, schedule: Q01DX001 (ip), vehicle: other) 93 % of control.
`CC(=O)CCC(CCC(C)=O)(CCC(C)=O)[N+](=O)[O-]`: the T/C by setting is: under setting [1], 104 % of control; under setting [2], 104 % of control; under setting [3], 98 % of control.
Regarding `CC(=O)OCC1OC(=O)C(C)N(C)C(=O)CN(C)C(=O)C2C(=O)CC(C)N2C(=O)C(C(C)C)NC(=O)C1NC(=O)c1c2nc3c(C(=O)NC4C(=O)NC(C(C)C)C(=O)N5C(C)CC(OC(C)=O)C5C(=O)N(C)CC(=O)N(C)C(C(C)C)C(=O)OC4C)ccc(C)c3oc-2c(C)c(=O)c1N` (stereo not drawn), the T/C by setting is: (dose: 0.05 mg/kg/injection, schedule: Q01DX009 (ip), vehicle: saline with Tween-80) 94 % of control; (dose: 0.1 mg/kg/injection, schedule: Q01DX009 (ip), vehicle: saline with Tween-80) 102 % of control; (dose: 0.15 mg/kg/injection, schedule: Q04DX003 (ip), vehicle: saline with Tween-80) 95 % of control; (dose: 0.2 mg/kg/injection, schedule: Q01DX009 (ip), vehicle: saline with Tween-80) 112 % of control; (dose: 0.3 mg/kg/injection, schedule: Q04DX003 (ip), vehicle: saline with Tween-80) 100 % of control; (dose: 0.4 mg/kg/injection, schedule: Q01DX001 (ip), vehicle: saline with Tween-80) 102 % of control. For the same molecule, the T/C is, setting by setting: (dose: 0.4 mg/kg/injection, schedule: Q01DX009 (ip), vehicle: saline with Tween-80) 118 % of control; (dose: 0.6 mg/kg/injection, schedule: Q04DX003 (ip), vehicle: saline with Tween-80) 111 % of control; (dose: 0.8 mg/kg/injection, schedule: Q01DX001 (ip), vehicle: saline with Tween-80) 118 % of control; (dose: 1.2 mg/kg/injection, schedule: Q04DX003 (ip), vehicle: saline with Tween-80) 118 % of control; (dose: 1.6 mg/kg/injection, schedule: Q01DX001 (ip), vehicle: saline with Tween-80) 112 % of control; (dose: 2.4 mg/kg/injection, schedule: Q04DX003 (ip), vehicle: saline with Tween-80) 119 % of control. Also, the T/C (dose: 3.2 mg/kg/injection, schedule: Q01DX001 (ip), vehicle: saline with Tween-80) was 119 % of control and the T/C (dose: 6.4 mg/kg/injection, schedule: Q01DX001 (ip), vehicle: saline with Tween-80) is 102 % of control.
Take `Nc1ncnc2c1ncn2C1OCC(OCc2ccccc2)C(OCc2ccccc2)C1OCc1ccccc1` (stereo not drawn): the T/C is, setting by setting: under setting [12], 98 % of control; (dose: 178.0 mg/kg/injection, schedule: Q01DX001 (ip), vehicle: saline) 97 % of control and 104 % of control; under setting [13], 98 % of control and 96 % of control; (dose: 267.0 mg/kg/injection, schedule: Q01DX001 (ip), vehicle: saline) 97 % of control and 103 % of control; under setting [14], 101 % of control and 220 % of control and 93 % of control; (dose: 600.0 mg/kg/injection, schedule: Q01DX001 (ip), vehicle: saline) 97 % of control and 101 % of control.
Turning to `NC(=S)N/N=C/c1cccc2ccccc12`, the T/C (dose: 100.0 mg/kg/injection, schedule: Q04DX002 (ip), vehicle: gum acacia) is 91 % of control; the T/C (dose: 200.0 mg/kg/injection, schedule: Q04DX002 (ip), vehicle: gum acacia) was 98 % of control; the T/C (dose: 400.0 mg/kg/injection, schedule: Q04DX002 (ip), vehicle: gum acacia) was 117 % of control.
Take `c1ccc2c(c1)ccc1cc3c(ccc4ccccc43)cc12`: the T/C is, setting by setting: (dose: 25.0 mg/kg/injection, schedule: Q01DX001 (ip), vehicle: Klucel (hydroxypropylcellulose) (HPC)) 106 % of control; (dose: 50.0 mg/kg/injection, schedule: Q01DX001 (ip), vehicle: Klucel (hydroxypropylcellulose) (HPC)) 109 % of control; under setting [6], 108 % of control; under setting [7], 108 % of control; under setting [8], 109 % of control.
For the molecule `CC1(CCBr)NC(=O)NC1=O` (stereo not drawn), the T/C runs as follows: under setting [4], 121 % of control; under setting [9], 98 % of control; under setting [5], 101 % of control; under setting [10], 119 % of control; (dose: 400.0 mg/kg/injection, schedule: Q01DX009 (ip), vehicle: Klucel (hydroxypropylcellulose) (HPC)) 95 % of control; under setting [11], 107 % of control.
With `O=C1C2=C(C(=O)C3=C1C1CCC3C1)C1CCC2C1`, the T/C was 90 % of control (dose: 100.0 mg/kg/injection, schedule: Q04DX002 (ip), vehicle: saline with Tween-80) and 93 % of control (dose: 400.0 mg/kg/injection, schedule: Q04DX002 (ip), vehicle: saline with Tween-80).
Consider `O=C1CCSC(=O)N1SC(Cl)(Cl)Cl`, for which the T/C is 88 % of control (dose: 6.0 mg/kg/injection, schedule: Q04DX003 (ip), vehicle: saline with Tween-80); 94 % of control (dose: 12.0 mg/kg/injection, schedule: Q01DX009 (ip), vehicle: saline with Tween-80); 101 % of control (dose: 12.0 mg/kg/injection, schedule: Q04DX003 (ip), vehicle: saline with Tween-80); 92 % of control (dose: 25.0 mg/kg/injection, schedule: Q01DX009 (ip), vehicle: saline with Tween-80); 97 % of control and 101 % of control (dose: 25.0 mg/kg/injection, schedule: Q04DX003 (ip), vehicle: saline with Tween-80); 93 % of control and 90 % of control (dose: 50.0 mg/kg/injection, schedule: Q01DX009 (ip), vehicle: saline with Tween-80). The T/C is, setting by setting: (dose: 100.0 mg/kg/injection, schedule: Q04DX003 (ip), vehicle: saline) 98 % of control; (dose: 200.0 mg/kg/injection, schedule: Q04DX003 (ip), vehicle: saline) 93 % of control.
With `C=C1C(=O)OC2C1CCC(=C)C1CC(O)C(=C)C12` (stereo not drawn), the T/C is, setting by setting: (dose: 67.0 mg/kg/injection, schedule: Q01DX009 (ip), vehicle: saline with Tween-80) 103 % of control; (dose: 100.0 mg/kg/injection, schedule: Q01DX009 (ip), vehicle: saline with Tween-80) 105 % of control.
On to `CCNC(=O)Oc1cccc(NC(=O)OC)c1`, for which the T/C was 104 % of control (dose: 100.0 mg/kg/injection, schedule: Q04DX003 (ip), vehicle: saline with Tween-80); 93 % of control (dose: 200.0 mg/kg/injection, schedule: Q04DX003 (ip), vehicle: saline with Tween-80); 95 % of control (dose: 400.0 mg/kg/injection, schedule: Q04DX003 (ip), vehicle: saline with Tween-80).
